Laboratory results from ChEMBL document CHEMBL1142680, “Improving specificity vs bacterial thymidylate synthases through N-dansyl modulation of didansyltyrosine” (J Med Chem, 2005).

Columns and labels:
Thymidylate synthase [1] = target: T1, Thymidylate synthase (Lactobacillus casei, UniProt P00469); assay: Inhibitory constant against thymidylate synthase from Lactobacillus casei; parameters: species or system Lacticaseibacillus casei
T1 sequence (P00469 whole entry): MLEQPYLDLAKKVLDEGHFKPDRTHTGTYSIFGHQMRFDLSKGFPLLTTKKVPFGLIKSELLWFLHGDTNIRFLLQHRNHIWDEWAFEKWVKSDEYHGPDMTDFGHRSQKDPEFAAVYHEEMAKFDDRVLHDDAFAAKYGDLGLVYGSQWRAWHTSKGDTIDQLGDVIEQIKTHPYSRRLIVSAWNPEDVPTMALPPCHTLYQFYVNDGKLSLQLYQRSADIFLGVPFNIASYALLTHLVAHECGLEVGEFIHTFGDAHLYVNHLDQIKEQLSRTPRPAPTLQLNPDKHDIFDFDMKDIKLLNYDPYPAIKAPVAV

Thymidylate synthase [2] = target: Thymidylate synthase (Escherichia coli, UniProt C3SWJ7); assay: Inhibitory constant against thymidylate synthase from Escherichia coli
Thymidylate synthase (Escherichia coli, UniProt C3SWJ7), sequence (C3SWJ7 whole entry): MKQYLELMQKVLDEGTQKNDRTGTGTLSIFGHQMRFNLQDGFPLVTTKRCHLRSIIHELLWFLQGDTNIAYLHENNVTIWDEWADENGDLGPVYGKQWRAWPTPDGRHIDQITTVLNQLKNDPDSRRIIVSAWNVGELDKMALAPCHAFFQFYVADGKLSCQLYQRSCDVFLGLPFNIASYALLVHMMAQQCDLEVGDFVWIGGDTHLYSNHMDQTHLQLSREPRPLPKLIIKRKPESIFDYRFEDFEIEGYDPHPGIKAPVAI

| Compound | Ki (Thymidylate synthase [1]) [nM] | Ki (Thymidylate synthase [2]) [nM] |
| --- | --- | --- |
| CN(C)c1cccc2c(S(=O)(=O)Oc3ccc(C[C@H](NS(=O)(=O)c4cccc5cc(N)ccc45)C(=O)O)cc3)cccc12 | 500 | 300 |
| CN(C)c1cccc2c(S(=O)(=O)Oc3ccc(C[C@H](NS(=O)(=O)c4cccc5cc([N+](=O)[O-])ccc45)C(=O)O)cc3)cccc12 | 300 | 300 |
| CN(C)c1cccc2c(S(=O)(=O)Oc3ccc(C[C@H](NS(=O)(=O)c4cc5nnoc5c5ccccc45)C(=O)O)cc3)cccc12 | 1600 | 15000 |
| CN(C)c1cccc2c(S(=O)(=O)Oc3ccc(C[C@H](NS(=O)(=O)c4cccc5c(NC(=O)OCc6ccccc6)cccc45)C(=O)O)cc3)cccc12 | 100 | 9400 |
| CN(C)c1cccc2c(S(=O)(=O)N[C@@H](Cc3ccc(OS(=O)(=O)c4cccc5c(N(C)C)cccc45)cc3)C(=O)O)cccc12 | 1400 | 1800 |
| CN(C)c1cccc2c(S(=O)(=O)Oc3ccc(C[C@H](NS(=O)(=O)c4ccc(NC(=O)OCc5ccccc5)c5ccccc45)C(=O)O)cc3)cccc12 | 1700 | 1500 |
